Key:
[1] = test system: BT-474; conditions: 72 h
Summary of the method: (§1)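 In this assay, breast cancer cell lines spent 72 h with compound at 5 concentrations in 10-fold steps over a compound-specific 10,000-fold range. The first readout was cell death by CellTox Green fluorescence, and the second was viability by CellTiter-Glo luminescence, each normalised per plate to 0.1 % DMSO and a positive kill control. EC50 came from the dose-response curves, censored at the top concentration.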

[2] = test system: BT-549; conditions: 72 h
Summary of the method: as §1

[3] = test system: CAL-120; conditions: 72 h
Summary of the method: as §1

[4] = test system: CAL-148; conditions: 72 h
Summary of the method: as §1

[5] = test system: CAL-51; conditions: 72 h
Summary of the method: as §1

[6] = test system: CAL-85-1; conditions: 72 h
Summary of the method: as §1

[7] = test system: DU-4475; conditions: 72 h
Summary of the method: as §1

[8] = test system: HCC1143; conditions: 72 h
Summary of the method: as §1

[9] = test system: HCC1599; conditions: 72 h
Summary of the method: as §1

[10] = test system: HCC1937; conditions: 72 h
Summary of the method: as §1

[11] = test system: HDQ-P1; conditions: 72 h
Summary of the method: as §1

[12] = test system: MCF-10A; conditions: 72 h
Summary of the method: as §1

[13] = test system: MDA-MB-231; conditions: 72 h
Summary of the method: as §1

[14] = test system: MDA-MB-436; conditions: 72 h
Summary of the method: as §1

[15] = test system: MDA-MB-453; conditions: 72 h
Summary of the method: as §1

[16] = test system: MDA-MB-468; conditions: 72 h
Summary of the method: as §1

[17] = test system: MFM-223; conditions: 72 h
Summary of the method: as §1

[18] = test system: SK-BR-3; conditions: 72 h
Summary of the method: as §1

[19] = test system: BT-474; conditions: 72 h; remark: listed apart in the source
Description: (§2)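 Drug sensitivity and resistance testing (DSRT) of breast cancer cell lines in 384-well plates, 5 concentrations in 10-fold dilutions over a compound-specific 10,000-fold range. After 72 h, cytotoxicity was read by CellTox Green fluorescence and viability by CellTiter-Glo luminescence (multiplexed), normalised to DMSO and benzethonium chloride controls. EC50 is the inflection point of the fitted dose-response curve (bottom asymptote free, so it can be relative for partial curves) and is censored at the highest tested concentration. Rows with DSS 0 (no meaningful response) were excluded.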

[20] = test system: BT-549; conditions: 72 h; remark: listed apart in the source
Description: as §2

[21] = test system: CAL-120; conditions: 72 h; remark: listed apart in the source
Description: as §2

[22] = test system: CAL-148; conditions: 72 h; remark: listed apart in the source
Description: as §2

[23] = test system: CAL-51; conditions: 72 h; remark: listed apart in the source
Description: as §2

[24] = test system: CAL-85-1; conditions: 72 h; remark: listed apart in the source
Description: as §2

[25] = test system: HCC1599; conditions: 72 h; remark: listed apart in the source
Description: as §2

[26] = test system: HCC1937; conditions: 72 h; remark: listed apart in the source
Description: as §2

[27] = test system: HDQ-P1; conditions: 72 h; remark: listed apart in the source
Description: as §2

[28] = test system: MCF-10A; conditions: 72 h; remark: listed apart in the source
Description: as §2

[29] = test system: MDA-MB-231; conditions: 72 h; remark: listed apart in the source
Description: as §2

[30] = test system: MDA-MB-436; conditions: 72 h; remark: listed apart in the source
Description: as §2

[31] = test system: MDA-MB-453; conditions: 72 h; remark: listed apart in the source
Description: as §2

[32] = test system: MDA-MB-468; conditions: 72 h; remark: listed apart in the source
Description: as §2

[33] = test system: MFM-223; conditions: 72 h; remark: listed apart in the source
Description: as §2

[34] = test system: MDA-MB-453; experiment: drug sensitivity score (DSS), CellTox Green (DSS (AUC-based score)); higher = stronger drug effect (viability inhibition or cytotoxicity); extreme values may be limits of the assay; conditions: incubation time: 72 h
Summary of the method: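 Each compound occupied 5 concentrations in 10-fold steps over its own 10,000-fold range in 384-well plates, into which breast cancer cell lines were seeded as 20 µl suspension. Following 72 h of incubation, CellTox Green fluorescence (485/520 nm) was measured, and CellTiter-Glo luminescence was measured after 10 min at room temperature. Plates were individually normalised to 0.1 % DMSO and a positive kill control. From the area under the fitted dose-response curve, a drug sensitivity score was calculated.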

[35] = test system: Hs578T; conditions: 72 h
Summary of the method: as §1

[36] = test system: DU-4475; conditions: 72 h; remark: listed apart in the source
Description: as §2

[37] = test system: CAL-148; conditions: 72 h; remark: listed apart in the source
Summary of the method: (§3)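 Viability of breast cancer cell lines was measured with CellTiter-Blue after 72 h of incubation on compound-loaded 384-well plates. Cells were seeded in 20 µl onto compound dissolved in 5 µl medium, and 2.5 µl reagent was added for 2 h at 37 °C before reading at 560/590 nm. EC50 was fitted from percent-inhibition dose-response data censored at the highest concentration, normalised per plate to vehicle and a positive kill control, with zero drug sensitivity score rows dropped.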

[38] = test system: CAL-51; conditions: 72 h; remark: listed apart in the source
Summary of the method: as §3

[39] = test system: DU-4475; conditions: 72 h; remark: listed apart in the source
Summary of the method: as §3

[40] = test system: MDA-MB-453; conditions: 72 h; remark: listed apart in the source
Summary of the method: as §3

[41] = test system: BT-474; conditions: 72 h; remark: listed apart in the source
Summary of the method: as §3

[42] = test system: BT-549; conditions: 72 h; remark: listed apart in the source
Summary of the method: as §3

[43] = test system: HCC1599; conditions: 72 h; remark: listed apart in the source
Summary of the method: as §3

[44] = test system: HCC1937; conditions: 72 h; remark: listed apart in the source
Summary of the method: as §3

[45] = test system: MDA-MB-231; conditions: 72 h; remark: listed apart in the source
Summary of the method: as §3

[46] = test system: MDA-MB-436; conditions: 72 h; remark: listed apart in the source
Summary of the method: as §3

[47] = test system: MDA-MB-468; conditions: 72 h; remark: listed apart in the source
Summary of the method: as §3

[48] = test system: SK-BR-3; conditions: 72 h; remark: listed apart in the source
Summary of the method: as §3

SMILES | EC50, CellTiter-Glo [1] | EC50, CellTiter-Glo [2] | EC50, CellTiter-Glo [3] | EC50, CellTiter-Glo [5] | EC50, CellTiter-Glo [6] | EC50, CellTiter-Glo [7] | EC50, CellTiter-Glo [10] | EC50, CellTiter-Glo [11] | EC50, CellTiter-Glo [12] | EC50, CellTiter-Glo [13] | EC50, CellTiter-Glo [14] | EC50, CellTiter-Glo [16] | EC50, CellTiter-Glo [17] | EC50, CellTox Green [21] | EC50, CellTox Green [23] | EC50, CellTox Green [24] | EC50, CellTox Green [28] | EC50, CellTox Green [29] | EC50, CellTox Green [31] | drug sensitivity score [34] | also measured
COc1cc2c(NC3CCN(C(C)C)CC3)nc(C3CCCCC3)nc2cc1OCCCN1CCCC1 [UNC0638] | 2.66 µM | 2.53 µM | 2.72 µM | 1.66 µM | 3.52 µM | 1.65 µM | 3.46 µM | 5.25 µM | 1.88 µM | 2.54 µM | 2.51 µM | 1.95 µM | 2.27 µM | 2.44 µM | 1.65 µM | 2.44 µM | 2.23 µM | 1.65 µM | 2.52 µM | 6.8 | EC50, CellTiter-Glo [4]: 2.51 µM; EC50, CellTiter-Glo [8]: 2.38 µM; EC50, CellTiter-Glo [9]: 2.79 µM; EC50, CellTiter-Glo [15]: 2.4 µM; EC50, CellTiter-Glo [18]: 2.27 µM; EC50, CellTox Green [19]: 2.2 µM; EC50, CellTox Green [20]: 2.1 µM; EC50, CellTox Green [22]: 2.73 µM; EC50, CellTox Green [25]: 1.44 µM; EC50, CellTox Green [26]: 2.14 µM; EC50, CellTox Green [27]: 4.72 µM; EC50, CellTox Green [30]: 4.24 µM; EC50, CellTox Green [32]: 2.38 µM; EC50, CellTox Green [33]: 2.92 µM
CC(=O)Nc1cccc(-n2c(=O)n(C3CC3)c(=O)c3c(Nc4ccc(I)cc4F)n(C)c(=O)c(C)c32)c1 [Trametinib] | 0.0147 µM |  | 0.0162 µM |  | 0.0211 µM | 0.00137 µM | 0.172 µM | 0.0017 µM | 0.00071 µM | 0.00645 µM | 0.067 µM |  | 0.0532 µM | 0.0454 µM |  | 0.0715 µM | 0.0792 µM | 0.0004 µM |  | 0 | EC50, CellTiter-Glo [35]: 0.137 µM; EC50, CellTox Green [36]: 0.00232 µM
Nc1ncn([C@H]2C[C@H](O)[C@@H](CO)O2)c(=O)n1 [Decitabine] | > 10 µM | 0.604 µM |  | 1.16 µM |  |  | 3.5 µM | > 10 µM |  |  |  | 0.0652 µM |  |  | 0.0289 µM |  |  |  | > 10 µM | 0.571 | EC50, CellTiter-Glo [35]: > 10 µM; EC50, CellTiter-Blue viability [37]: 6.6 µM; EC50, CellTiter-Blue viability [38]: 2.38 µM; EC50, CellTiter-Blue viability [39]: 6.76 µM; EC50, CellTiter-Blue viability [40]: 6.49 µM; EC50, CellTiter-Blue viability [41]: 1.97 µM; EC50, CellTiter-Blue viability [42]: 1.8 µM; EC50, CellTiter-Blue viability [43]: > 10 µM; EC50, CellTiter-Blue viability [44]: 0.737 µM; EC50, CellTiter-Blue viability [45]: 0.096 µM; EC50, CellTiter-Blue viability [46]: 0.0901 µM; EC50, CellTiter-Blue viability [47]: 0.0404 µM; EC50, CellTiter-Blue viability [48]: 3.47 µM; EC50, CellTox Green [32]: > 10 µM
